# Results as given in US20250084112A1, “Chemical Compounds Useful for Inhibiting Nav1.8 Voltage-Gated Sodium Channels and Treating Nav1.8 Mediated Diseases” (GlaxoSmithKline Intellectual Property Development Limited, priority 2021, published 2025).
# Read-outs that look alike come from different tables or passages of the source.
# Legend:
# [1] = Kinetic solubility measurement using Charged Aerosol Detector (CAD); assay type: physicochemical; details: phosphate buffered saline (PBS) pH 7.4, aqueous buffer, PBS pH 7.4, 1 hour at room temperature, from DMSO stock
# Protocol: Kinetic solubility measurement using Charged Aerosol Detector (CAD). The aqueous kinetic solubility at pH 7.4 was determined by measuring the concentration of solute in solution after precipitation from DMSO stock solution. The DMSO stock solution was diluted 20-fold with phosphate buffered saline (PBS) pH 7.4 and the solubility of the compound was measured after 1 hour equilibration at room temperature by HPLC-CAD. Calibration standards of Ketoconazole and Primidone were prepared by serial dilutions in DMSO at concentrations ranging from 0.016 to 4.5 mg/ml to produce the calibration curve used to determine the solubility of the compounds as previously described in Max W. Robinson et al, Use of Calculated Physicochemical Properties to Enhance Quantitative Response When Using Charged Aerosol Detection, Anal. Chem., 2017, 89 (3), pp 1772-1777, which is herein incorporated by reference.
# [2] = biological target: human Nav1.8 (Homo sapiens (Human), UniProt Q9Y5Y9); test: QPatch 48 HTX electrophysiology, half inactivation state (V1/2) voltage protocol in HEK293-Nav1.8; assay type: cell-based; details: HEK293-Nav1.8, QPatch V1/2 protocol, P2 current; average if more than one run
# Protocol: Human embryonic kidney 293 cells (HEK293) expressing human Nav1.8, human Navβ1 and human TREK1 (HEK293-Nav1.8) were grown at 37° C., 5% CO2 in 150 cm^2 flasks. HEK293-Nav1.8 were passaged every 2-3 days into T175 cell culture flasks when confluency reached 80-90%.
# Pharmacological assessment of the compounds of the invention was performed using HEK293-Nav1.8 in combination with an assay developed on the QPatch 48 HTX electrophysiological system. HEK293-Nav1.8 were prepared on the day of use by removing culture media, washing in DPBS, adding Accutase (2 ml to cover the surface, aspirate 1 ml then 1.5 min at 37° C.) followed by addition of CHO-SFM II to stop the enzyme digestion and in order to obtain a suspension of 3×10^6 cell/mL.
# Compound was prepared in an extracellular solution of the following composition: NaCl (145 mM), KCl (4 mM), CaCl2 (2 mM), MgCl2 (2 mM), HEPES (1 mM), Glucose (10 mM), pH 7.4 with NaOH Osmolality 300 mOsM/L. The intracellular solution was used of the following composition: CsF (115 mM), CsCl (20 mM), NaCl (5 mM), EGTA (10 mM), HEPES (10 mM), Sucrose (20 mM), pH 7.2 with CsOH Osmolality 310 mOsm/L.
# Utilizing the voltage-clamp mode in the QPatch 48 HTX system a half inactivation state voltage protocol (V1/2) was used to determine pharmacological activity of compounds of the invention at Nav1.8 ion channels. A V1/2 protocol was utilized with the following voltage steps: a holding voltage of −100 mV was established followed by a 20 ms voltage step to 0 mV (P1), followed by an inactivating voltage step at −46 mV for 8 seconds, followed by a step to −100 mV for 20 ms, before a 20 ms step to 0 mV (P2) before returning to the holding voltage of −100 mV. This voltage protocol was repeated at a frequency of 0.07 Hz., current magnitude was quantified at the P2 step throughout the recording. Inhibition of the measured current amplitude with the compounds of the invention was analyzed by fitting a 6-8 point dose-response curve allowing determination of the fifty percent inhibition concentration (IC50). Within the QPatch HTX software, P2 current was normalized according to measurements made at baseline after compound and after positive reference compound and fit to the following equation: […]
# To assess current run-down over the course of the experiment vehicle-only wells were utilized and the normalized current with vehicle-only (n.IVEH) was determined. To correct the compound response for run-down, the currents were corrected according the following formula: […]
# Compounds of the invention and the corresponding parent compounds (see Table 1A for structures) were tested for activity against Nav1.8 sodium channels in the above assay in one or more experimental runs and the results are shown in Table 1 below. Potency of the compounds of the invention is reported as a pIC50 value. The pIC50 value is the negative log of the IC50 value, wherein the IC50 value is the half maximal inhibitory concentration measured in molar (M). Potency of the compounds of the invention is compared to the potency of the parent compound. For compounds tested in more than one experimental run, the pIC50 value is reported as an average.
# [3] = Rat IV/PO pharmacokinetic study (prodrug to parent conversion); assay type: in vivo, Han Wistar rats
# Protocol: An in vivo rat pharmacokinetic study was conducted to determine whether the prodrug compounds of the invention are converted to the respective parent compound upon administration. The rat pharmacokinetic study was conducted with a crossover design on two study days with a one-day recovery period between each study day. Three male, dual catheterized (femoral vein and carotid artery) Han Wistar rats were used for the study. Each rat was also implanted with a gastric catheter for oral dose administration. Rats were dosed at 1 mg/kg by a 60 minute intravenous (IV) infusion (femoral vein cannula), then subsequently oral dosed at 2 mg/kg via the gastric cannula, with 48 hours between dosing sessions. Dose solutions of the compound of Example 3 were prepared in 20% Cavitron/5% DMSO/75% water (IV) and in 6% Cavitron/5% DMSO/89% water (PO) without pH adjustment. The dose solutions were filtered using a 0.22 μ filter. The pH of the final dosing solutions was 6.0.
# During the intravenous study leg, blood samples were collected from the carotid artery catheter at target times of 15, 30, 60 (end of infusion), 65, 75, 90, 120, 240, 360, 480, 720, and 1440 minutes following the initiation of the intravenous infusion of the compound of Example 3. During the oral study leg, blood samples were collected prior to dosing and at target times of 15, 30, 60, 90, 120, 180, 240, 360, 480, 720, and 1440 minutes following oral administration. Blood samples, 100 μL, were mixed with 100 μL phosphatase inhibitor, a 50 μL aliquot of the blood and inhibitor mixture was transferred to a non-heparinized tube and stored at approximately −80° C. until analyzed. The concentrations in the filtered dose solutions were confirmed by preparing stepwise dilutions first into 50% aqueous acetonitrile with 0.1% formic acid then into heparinized male Wistar Han blood:inhibitor to achieve determined nominal concentrations. Triplicate 50 μL aliquots were removed and were frozen and stored at approximately […] until analyzed by LC-MS/MS as described below.
# LC-MS/MS was used to quantify the compound of Example 3 and the corresponding parent compound of Example 3A in the biological samples generated in the above described in vivo study. Samples were prepared by protein precipitation followed by LC-MS/MS analysis employing positive-mode ionization against a set of calibration standards for the compounds prepared in the same matrix. Pharmacokinetic parameters for the study was derived from the concentration versus time profiles. Key pharmacokinetic parameters such as AUC0-∞ (extrapolated area under the blood concentration-time curve), AUC0-t (area under the blood concentration-time curve to the last time point with quantifiable drug), Cmax (maximum concentration), Tmax (time Cmax is achieved), CL (systemic blood clearance), Vdss (steady-state volume of distribution), MRT (mean residence time), and t1/2(half-life) were determined for the compound of Example 3. The key pharmacokinetic parameters such as AUC0-∞, AUC0-t, Cmax, Tmax, MRT, and t1/2 (half-life) were determined for the parent compound Example 3A. Descriptive statistical data of pharmacokinetic parameters were calculated, including the mean and standard deviation (SD) using Microsoft Excel.
# The data are shown below in Tables 3A and 3B. Data are reported as mean±SD (N=3).
# [4] = average of multiple runs, read-out: CAD solubility (Parent Compounds)
# [5] = average for Examples 1 and 3, one run for 2 and 4, read-out: CAD solubility (Prodrug Compounds of the Invention)
# [6] = male, Han Wistar, whole blood, prodrug in blood, Example 3 1 mg/kg 60 minute intravenous infusion, mean±SD (N=3)
# human Nav1.8, sequence (Q9Y5Y9 whole entry): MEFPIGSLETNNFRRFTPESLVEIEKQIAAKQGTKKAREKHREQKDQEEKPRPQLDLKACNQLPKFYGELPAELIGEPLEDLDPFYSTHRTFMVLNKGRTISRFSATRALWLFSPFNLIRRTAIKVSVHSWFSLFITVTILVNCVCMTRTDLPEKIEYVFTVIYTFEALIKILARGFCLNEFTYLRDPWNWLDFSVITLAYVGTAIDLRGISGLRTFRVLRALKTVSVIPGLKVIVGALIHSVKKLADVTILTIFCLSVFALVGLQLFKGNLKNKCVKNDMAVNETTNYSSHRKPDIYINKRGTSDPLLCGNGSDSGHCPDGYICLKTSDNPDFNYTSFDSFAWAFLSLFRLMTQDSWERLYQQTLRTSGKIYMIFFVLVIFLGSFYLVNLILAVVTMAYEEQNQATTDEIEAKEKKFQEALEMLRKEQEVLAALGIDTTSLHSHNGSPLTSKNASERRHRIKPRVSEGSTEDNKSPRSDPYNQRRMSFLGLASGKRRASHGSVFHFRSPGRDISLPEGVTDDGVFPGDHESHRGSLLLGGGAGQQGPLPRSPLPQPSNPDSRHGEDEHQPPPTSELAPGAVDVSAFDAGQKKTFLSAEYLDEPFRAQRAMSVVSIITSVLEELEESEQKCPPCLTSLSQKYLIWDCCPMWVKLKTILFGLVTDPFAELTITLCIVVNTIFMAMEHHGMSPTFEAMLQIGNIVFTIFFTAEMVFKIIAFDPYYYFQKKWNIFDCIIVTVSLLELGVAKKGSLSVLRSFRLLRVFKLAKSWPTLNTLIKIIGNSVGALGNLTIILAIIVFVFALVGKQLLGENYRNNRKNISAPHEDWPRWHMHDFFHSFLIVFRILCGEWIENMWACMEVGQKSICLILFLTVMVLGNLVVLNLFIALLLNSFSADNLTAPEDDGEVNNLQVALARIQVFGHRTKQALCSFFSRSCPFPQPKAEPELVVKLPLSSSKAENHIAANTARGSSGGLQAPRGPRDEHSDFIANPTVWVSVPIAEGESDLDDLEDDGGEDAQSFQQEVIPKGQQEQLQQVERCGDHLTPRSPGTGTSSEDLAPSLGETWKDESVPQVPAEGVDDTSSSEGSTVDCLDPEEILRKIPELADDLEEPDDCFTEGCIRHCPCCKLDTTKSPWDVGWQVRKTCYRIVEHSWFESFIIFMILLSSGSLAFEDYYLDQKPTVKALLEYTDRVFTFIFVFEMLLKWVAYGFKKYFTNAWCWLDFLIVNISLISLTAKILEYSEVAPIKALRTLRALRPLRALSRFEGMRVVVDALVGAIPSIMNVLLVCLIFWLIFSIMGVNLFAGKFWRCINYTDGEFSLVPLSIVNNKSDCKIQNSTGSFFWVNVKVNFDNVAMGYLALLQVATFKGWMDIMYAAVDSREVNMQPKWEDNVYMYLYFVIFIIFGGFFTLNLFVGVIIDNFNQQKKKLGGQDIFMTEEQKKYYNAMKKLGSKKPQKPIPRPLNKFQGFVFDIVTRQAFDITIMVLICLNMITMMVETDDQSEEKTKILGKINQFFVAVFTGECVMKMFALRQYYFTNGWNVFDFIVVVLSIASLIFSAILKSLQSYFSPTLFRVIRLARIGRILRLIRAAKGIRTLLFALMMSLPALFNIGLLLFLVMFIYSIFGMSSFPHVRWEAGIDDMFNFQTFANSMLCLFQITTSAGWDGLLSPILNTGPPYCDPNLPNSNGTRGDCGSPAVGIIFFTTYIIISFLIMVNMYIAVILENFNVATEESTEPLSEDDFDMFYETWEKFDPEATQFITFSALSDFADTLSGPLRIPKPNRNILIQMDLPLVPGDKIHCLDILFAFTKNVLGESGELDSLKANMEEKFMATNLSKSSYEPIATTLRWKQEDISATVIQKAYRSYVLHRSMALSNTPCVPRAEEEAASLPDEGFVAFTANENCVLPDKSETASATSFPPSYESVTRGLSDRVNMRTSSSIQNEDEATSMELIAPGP
"solubility at 1 h [1, 4] [µg/mL]",[Nav1.8] pIC50 (Compounds of the Invention) [2],"solubility at 1 h [1, 5] [µg/mL]",SMILES,other results
54,–,–,"Cc1cc(F)ccc1N1CN(c2ccc(=O)[nH]c2C)C(=O)c2cc(Cl)ccc21 [Parent Compound 3A, 6-chloro-1-(4-fluoro-2-methylphenyl)-3-(2-methyl-6-oxo-1,6-dihydropyridin-3-yl)-2,3-dihydroquinazolin-4(1H)-one]",–
87,–,–,"Cc1cc(OC(F)(F)F)ccc1N1CN(c2ccc(=O)[nH]c2C)C(=O)c2cc(C(F)(F)F)cnc21 [Parent Compound 4A, 1-(2-methyl-4-(trifluoromethoxy)phenyl)-3-(2-methyl-6-oxo-1,6-dihydropyridin-3-yl)-6-(trifluoromethyl)-2,3-dihydropyrido[2,3-d]pyrimidin-4(1H)-one]",[Nav1.8] pIC50 (Parent Compounds) [2]: 7.5
51,–,–,"Cc1cc(F)ccc1N1CN(c2ccc(=O)[nH]c2C)C(=O)c2ccc(C(F)(F)F)cc21 [Parent Compound 2A, 1-(4-fluoro-2-methylphenyl)-3-(2-methyl-6-oxo-1,6-dihydropyridin-3-yl)-7-(trifluoromethyl)-2,3-dihydroquinazolin-4(1H)-one]",–

# Further lines, the compound ahead of its results:
SMILES,"solubility at 1 h [1, 4] [µg/mL]",[Nav1.8] pIC50 (Compounds of the Invention) [2],"solubility at 1 h [1, 5] [µg/mL]",other results
"Cc1cc(OC(F)(F)F)ccc1N1CN(c2ccc(=O)n(COP(=O)(O)O)c2C)C(=O)c2cc(C(F)(F)F)cnc21 [Example 4, (6-methyl-5-(1-(2-methyl-4-(trifluoromethoxy)phenyl)-4-oxo-6-(trifluoromethyl)-1,4-dihydropyrido[2,3-d]pyrimidin-3(2H)-yl)-2-oxopyridin-1(2H)-yl)methyl dihydrogen phosphate]",–,6.1,181,–
"Cc1cc(F)ccc1N1CN(c2ccc(=O)n(COP(=O)(O)O)c2C)C(=O)c2cc(Cl)ccc21 [Example 3, (5-(6-chloro-1-(4-fluoro-2-methylphenyl)-4-oxo-1,4-dihydroquinazolin-3(2H)-yl)-6-methyl-2-oxopyridin-1(2H)-yl)methyl dihydrogen phosphate]",–,6.9,102,"AUC(0-inf) [3, 6]: 250 ± 30 ng·h/mL; AUC(0-t) [3, 6]: 240 ± 40 ng·h/mL; Cmax [3, 6]: 260 ± 24 ng/mL; clearance ([3]; male, Han Wistar, whole blood, prodrug, systemic blood clearance, Example 3 1 mg/kg 60 minute intravenous infusion, mean±SD (N=3)): 58 ± 9 mL/min/kg; quantifiable concentrations following oral administration ([3]; prodrug in blood, Example 3 2 mg/kg oral via gastric cannula, text runs over cells r6-r10): There were no"
"Cc1cc(F)ccc1N1CN(c2ccc(=O)n(COP(=O)(O)O)c2C)C(=O)c2ccc(C(F)(F)F)cc21 [Example 2, (5-(1-(4-fluoro-2-methylphenyl)-4-oxo-7-(trifluoromethyl)-1,4-dihydroquinazolin-3(2H)-yl)-6-methyl-2-oxopyridin-1(2H)-yl)methyl dihydrogen phosphate]",–,6.6,> 193,–
"Cc1cc(F)ccc1N1CN(c2ccc(=O)[nH]c2C)C(=O)c2cc(C(F)(F)F)ccc21 [Parent Compound 1A, 1-(4-fluoro-2-methylphenyl)-3-(2-methyl-6-oxo-1,6-dihydropyridin-3-yl)-6-(trifluoromethyl)-2,3-dihydroquinazolin-4(1H)-one]",48,–,–,[Nav1.8] pIC50 (Parent Compounds) [2]: 8
"Cc1cc(F)ccc1N1CN(c2ccc(=O)n(COP(=O)(O)O)c2C)C(=O)c2cc(C(F)(F)F)ccc21 [Example 1, (5-(1-(4-Fluoro-2-methylphenyl)-4-oxo-6-(trifluoromethyl)-1,4-dihydroquinazolin-3(2H)-yl)-6-methyl-2-oxopyridin-1(2H)-yl)methyl dihydrogen phosphate]",–,6.8,> 260,–
